Where a name gives a salt, the structure may show the parent alone.
These molecules were tested on rat aorta (assay: In vitro activity in rat aorta stimulated by potassium ions). Details: 1 h; rat aorta rings, KCl 80 mM stimulation, cumulative doses at 60 minutes intervals.
Assay type: cell-based, rat (male Wistar)
Protocol: Determination of the Vitro Activity in Rat Aorta Stimulated by Potassium Ions
This trial was carried out using isolated organs removed from male Wistar rats weighing 300 to 400 g, kept under a water diet 18 hours before sacrificing.
After quickly sacrificing the animal, the aorta (at the level of the arch of the aorta) is removed and dissected into 2 mm-long rings; the endothelium is removed mechanically. After an equilibration period of 1 hour in a physiological solution consisting of (mM): NaCl 112, KCl 5, KH2 PO4 1, MgSO4 1.2, CaCl2 2.5, NaHCO3 25 and glucose 11.5, the preparations are stimulated with a potassium-rich solution. The latter consists of (mM):NaCl 37, KCl 80, KH2 PO4 1, MgSO4 1.2, CaCl2 2.5, NaHCO3 25 and glucose 11.5. This solution has a pH of 7.4 at 37° C.
After 15 minutes of stabilization, the compounds to be tested are then added (sample volume 0.2 ml) at cumulative doses at 60 minutes intervals. From the relaxation values obtained, it is possible to construct a doseresponse curve, leading to the calculation of an IC50 value (expressed in M).
For `CCOC(=O)C1=C(COCCOCCN)NC(C)=C(C(=O)OC)C1c1c(Cl)ccc(Cl)c1Cl` (racemic) [EXAMPLE 32, (4R,S,)-2-{[2-(2-Aminoethoxy)ethoxy]methyl}-3-ethoxycarbonyl-5-methoxycarbonyl-6-methyl-4-(2,3,6-trichlorophenyl)-1,4-dihydropyridine fumarate], the IC50 was 32 nM. In the case of `CCOC(=O)C1=C(COCCCOCCCN)NC(C)=C(C(=O)OC)C1c1cccc(Cl)c1Cl` (racemic) [EXAMPLE 27, (4R,S)-2-{[3-(3-Aminopropoxy)propoxy]methyl}-4-(2,3-dichlorophenyl)-3-ethoxycarbonyl-5-methoxycarbonyl-6-methyl-1,4-dihydropyridine fumarate], the IC50 is reported as 4.4 nM. `COC(=O)C1=C(C)NC(COCCOCCN)=C(C(=O)OC(C)C)C1c1c(F)c(F)c(F)c(F)c1F` (racemic) [EXAMPLE 26, (4R,S)-2-{[2-(2-Aminoethoxy)ethoxy]methyl}-3-isopropoxycarbonyl-5-methoxycarbonyl-6-methyl-4-pentafluorophenyl-1,4-dihydropyridine tartrate] was tested, and the IC50 was 310 nM. With `COC(=O)C1=C(C)NC(COCCOCCN)=C(C(=O)OC(C)C)C1c1cccc(C(F)(F)F)c1Cl` (racemic) [EXAMPLE 35, (4R,S)-2-{[2-(2-Aminoethoxy)ethoxy]methyl}-4-(2-chloro-3-trifluoromethylphenyl)-3-isopropoxycarbonyl-5-methoxycarbonyl-6-methyl-1,4-dihydropyridine tartrate] the IC50 was 21 nM. Work on `CCOC(=O)C1=C(COCCOCCN)NC(C)=C(C(=O)OCC(C2CC2)C2CC2)C1c1ccccc1Cl` (racemic) [EXAMPLE 9, (4R,S)-2-{[2-(2-Aminoethoxy)ethoxy]methyl}-4-(2-chlorophenyl)-5-(2,2-dicyclopropylethoxycarbonyl)-3-ethoxycarbonyl-6-methyl-1,4-dihydropyridine fumarate] yielded an IC50 of 3000 nM. `CCOC(=O)C1=C(COCCOCCN)NC(C)=C(C(=O)OC)C1c1cc(Cl)cc(Cl)c1Cl` (racemic) [EXAMPLE 31, (4R,S)-2-{[2-(2-Aminoethoxy)ethoxy]methyl}-3-ethoxycarbonyl-5-methoxycarbonyl-6-methyl-4-(2,3,5-trichlorophenyl)-1,4-dihydropyridine fumarate] was tested, and the IC50 was 170 nM. For `CCOC(=O)C1=C(COCCOCCN)NC(C)=C(C(=O)OC)C1c1ccc(OC)c(OC)c1OC` (racemic) [EXAMPLE 3, (4R,S)-2-{[2-(2-Aminoethoxy)ethoxy]methyl}-3-ethoxycarbonyl-5-methoxycarbonyl-6-methyl-4-(2,3,4-trimethoxyphenyl)-1,4-dihydropyridine fumarate], the IC50 was 1000 nM. Molecule `COC(=O)C1=C(C)NC(COCCOCCN)=C(C(=O)OCCCC(C2CC2)C2CC2)C1c1cccc(C(F)(F)F)c1Cl` (racemic) [EXAMPLE 36, (4R,S)-2-{[2-(2-Aminoethoxy)ethoxy]methyl}-4-(2-chloro-3-trifluoromethylphenyl)-3-(4,4-dicyclopropylbutyloxycarbonyl)-5-methoxycarbonyl-6-methyl-1,4-dihydropyridine fumarate] has an IC50 of 470 nM. `C=C(C)COC(=O)C1=C(COCCOCCN)NC(C)=C(C(=O)OC)C1c1cccc(Cl)c1Cl` (racemic) [EXAMPLE 39, (4R,S)-2-{[2-(2-Aminoethoxy)ethoxy]methyl}-4-(2,3-dichlorophenyl)-3-[(2-methyl-2-propenyl)oxycarbonyl]-5-methoxycarbonyl-6-methyl-1,4-dihydropyridine fumarate] gave an IC50 of 80 nM. With `CCOC(=O)C1=C(COCCCOCCCN)NC(C)=C(C(=O)OC)C1c1cccc(C(F)(F)F)c1SC` (racemic) [EXAMPLE 30, (4R,S)-2-{[3-(3-Aminopropoxy)propoxy]methyl}-3-ethoxycarbonyl-5-methoxycarbonyl-6-methyl-4-(2-methylthio-3-trifluoromethylphenyl)-1,4-dihydropyridine fumarate] the IC50 was 25 nM. `CCOC(=O)C1=C(C)NC(COCCOCCN)=C(C(=O)OC)C1c1c(F)c(F)c(F)c(F)c1F` (racemic) [EXAMPLE 20, (4R,S)-2-{[2-(2-Aminoethoxy)ethoxy]methyl}-5-ethoxycarbonyl-3-methoxycarbonyl-6-methyl-4-pentafluorophenyldihydropyridine tartrate] was tested, and the IC50 was 26 nM. With `COC(=O)C1=C(C)NC(COCCOCCN)=C(C(=O)OCCCC(C2CC2)C2CC2)C1c1cccc(Cl)c1Cl` (racemic) [EXAMPLE 33, (4R,S)-2-{[2-(2-Aminoethoxy)ethoxy]methyl}-4-(2,3-dichlorophenyl)-3-(4,4-dicyclopropylbutyloxycarbonyl)-5-methoxycarbonyl-6-methyl-1,4-dihydropyridinefumarate] the IC50 was 77 nM. `CCOC(=O)C1=C(C)NC(COCCOCCN)=C(C(=O)OCC)C1c1c(F)c(F)c(F)c(F)c1F` (racemic) [EXAMPLE 15, (4R,S)-2-{[2-(2-Aminoethoxy)ethoxy]methyl}-3,5-diethoxycarbonyl-6-methyl-4-pentafluorophenyl-1,4-dihydropyridine] gave an IC50 of 120 nM. `CCOC(=O)C1=C(CCCCCN)NC(C)=C(C(=O)OC)C1c1ccccc1Cl` (racemic) [EXAMPLE 14, (4R,S)-2-(5-Aminopentyl)-4-(2-chlorphenyl)-3-ethoxycarbonyl-5-methoxycarbonyl-6-methyl-1,4-dihydropyridine citrate] gave an IC50 of 40 nM. `COC(=O)C1=C(C)NC(COCCOCCN)=C(C(=O)OCC(C2CC2)C2CC2)C1c1ccccc1Cl` (racemic) [EXAMPLE 4, (4R,S)-2-{[2-(2-Aminoethoxy)ethoxy]methyl}-4-(2-chlorophenyl)-3-(2,2-dicyclopropylethoxycarbonyl)-5-methoxycarbonyl-6-methyl-1,4-dihydropyridine fumarate] gave an IC50 of 300 nM. In the case of `COC(=O)C1=C(C)NC(COCCOCCN)=C(C(=O)OCC(C)C)C1c1cccc(Cl)c1Cl` (racemic) [EXAMPLE 28, (4R,S)-2-{[2-(2-Aminoethoxy)ethoxy]methyl}-4-(2,3-dichlorophenyl)-3-isobutyloxycarbonyl-5-methoxycarbonyl-6-methyl-1,4-dihydropyridine fumarate], the IC50 is reported as 9.3 nM. `COC(=O)C1=C(C)NC(COCCOCCN)=C(C(=O)OC/C=C/C(C2CC2)C2CC2)C1c1cccc(C(F)(F)F)c1Cl` [EXAMPLE 37, (4R,S)-2-{[2-(2-Aminoethoxy)ethoxy]methyl}-4-(2-chloro-3-trifluoromethylphenyl)-3-{[(E)-4,4-dicyclopropyl-2-butene]oxycarbonyl}-5-methoxycarbonyl-6-methyl-1,4-dihydropyridine fumarate] showed an IC50 of 350 nM. Work on `CCOC(=O)C1=C(COCCOCCN)NC(C)=C(C(=O)OC)C1c1cccc(Cl)c1` (racemic) [EXAMPLE 18, (4R,S)-2-{[2-(2-Aminoethoxy)ethoxy]methyl}-4-(3-chlorophenyl)-3-ethoxycarbonyl-5-methoxycarbonyl-6-methyl-1,4-dihydropyridine tartrate] yielded an IC50 of 4.7 nM. `CCOC(=O)C1=C(COCCOCCNC(=O)C(F)(F)F)NC(C)=C(C(=O)OC)C1c1c(F)c(F)c(F)c(F)c1F` (racemic) [EXAMPLE 21, (4R,S)-2-[{2-[2-(N-Trifluoroacetylamino)ethoxy]-ethoxy}methyl]-3-ethoxycarbonyl-5-methoxycarbonyl-6-methyl-4-pentafluorophenyl-1,4-dihydropyridine] was tested, and the IC50 was 68 nM. `COC(=O)C1=C(C)NC(COCCOCCN)=C(C(=O)OC(C)C)C1c1cccc(Cl)c1Cl` (racemic) [EXAMPLE 25, (4R,S)-2-{[2-(2-Aminoethoxy)ethoxy]methyl}-4-(2,3-dichlorophenyl)-3-isopropoxycarbonyl-5-methoxycarbonyl-6-methyl-1,4-dihydropyridine fumarate] gave an IC50 of 13 nM. Molecule `COC(=O)C1=C(C)NC(COCCOCCN)=C(C(=O)OCc2ccc([N+](=O)[O-])cc2)C1c1c(F)c(F)c(F)c(F)c1F` (racemic) [EXAMPLE 23, (4R,S)-2-{[2-(2-Aminoethoxy)ethoxy]methyl}-3-(4-nitrobenzyloxycarbonyl)-5-methoxy-6-methyl-4-pentafluorophenyl-1,4-dihydropyridine tartrate] has an IC50 of 200 nM. Work on `COC(=O)C1=C(C)NC(COCCOCCN)=C(C(=O)OCC(C)C)C1c1cccc(C(F)(F)F)c1Cl` (racemic) [EXAMPLE 38, (4R,S)-2-{[2-(2-Aminoethoxy)ethoxy]methyl}-4-(2-chloro-3-trifluoromethylphenyl)-3-isobutyloxycarbonyl-5-methoxycarbonyl-6-methyl-1,4-dihydropyridine fumarate] yielded an IC50 of 61 nM. In the case of `COC(=O)C1=C(C)NC(COCCOCCN)=C(C(=O)OC/C=C/C(C2CC2)C2CC2)C1c1cccc(Cl)c1Cl` [EXAMPLE 29, (4R,S)-2-{[2-(2-Aminoethoxy)ethoxy]methyl}-4-(2,3-dichlorophenyl)-3-{[(E)-4,4-dicyclopropyl-2-butene]-oxycarbonyl}-5-methoxycarbonyl-6-methyl-1,4-dihydropyridine tartrate], the IC50 is reported as 75 nM. With `CCOC(=O)C1=C(COCCCOCCCN)NC(C)=C(C(=O)OC)C1c1c(F)c(F)c(F)c(F)c1F` (racemic) [EXAMPLE 24, (4R,S)-2-{[3-(3-Aminopropoxy)propoxy]methyl}-3-ethoxycarbonyl-5-methoxycarbonyl-4-pentafluorophenyl-1,4-dihydropyridine tartrate] the IC50 was 0.82 nM. With `CCOC(=O)C1=C(COCCOCCN)NC(COC)=C(C(=O)OC)C1c1cccc(Cl)c1Cl` (racemic) [EXAMPLE 10, (4R,S)-2-{[2-(2-Aminoethoxy)ethoxy]methyl}-4-(2,3-dichlorophenyl)-3-ethoxycarbonyl-5-methoxycarbonyl-6-methoxymethyl-1,4-dihydropyridine] the IC50 was 90 nM.

From patent US4983740A, “Process for 1,4-dihydropyridine compounds” (Adir et Compagnie, priority 1986, dated 1991)
